Measurements reported in patent publication US20230348394A1, “COMPOSITIONS AND METHODS FOR TREATING MUSCULAR DYSTROPHIES” (The Regents of the University of California, priority 2020, published 2023).

Assays:
[1] = test system: H2K mdx myotubes; experiment: Differentiation of mdx myotubes (fusion index, MYOG gene expression); assay type: cell-based, murine; conditions: mdx myotubes, 1, 5 and 10 μM
[2] = test system: membrane-associated utrophin; experiment: Cell surface protein biotinylation and utrophin immunoblot, mdx myotubes; assay type: cell-based, murine; conditions: 5 μM, 48 hours
Experimental: Myotubes treated for 48 hrs were lysed using RIPA buffer (Thermo Fisher Scientific) containing Halt Protease Inhibitor Cocktail (Thermo Fisher Scientific). Cell lysates in RIPA buffer were rocked for 1 hr at 4° C. and centrifuged at 1,000 RPM for 30 mins at 4° C. The supernatant was collected, quantified for protein concentration using the DC protein assay (Bio-Rad), and normalized to 2 mg/ml in water and Laemmli sample buffer with a final concentration of 10% glycerol (Sigma-Aldrich), 5% beta-mercaptoethanol (Sigma-Aldrich), 3% sodium dodecyl sulfate (Sigma-Aldrich), and 0.05% bromophenol blue (Sigma-Aldrich). For SDS-PAGE, samples were heated to 95° C. for 2 mins before loading 40 μg onto 4-12% tris-glycine or bis-tris polyacrylamide gels (Novex), electrophoresed for 2 hrs at 100 volts at RT, and transferred to a nitrocellulose membrane for 2 hrs at 100 volts at 4° C. Ponceau S staining was performed to visualize protein loading and verify protein transfer. […] Autoradiography films were developed using a SRX-101A tabletop processor (Konica Minolta), scanned to a digital file, and analyzed by densitometry of bands using ImageJ version 1.51 s. […]

[3] = Half-life analysis in PBS pH 7.4; assay type: physicochemical; conditions: PBS pH 7.4, 37° C.
Experimental: Half-life analysis was performed by Eurofins Panlabs Inc. using 1 μM of compound with a final DMSO concentration of 0.5%. PBS or plasma from CD-1 mice was pre-warmed to 37° C. for 5 mins before addition of the test compounds and continued incubation at 37° C. At 0, 30, 60, 120, 240, and 1440 mins an aliquot of solution containing compounds was mixed with acetonitrile/methanol, mixed, and centrifuged. The supernatants were used for HPLC-MS/MS analysis.

Compound: CCN(CC)c1ccc2cc(C(=O)Nc3ccc(C(=O)N4CCCCCC4)cc3)c(=O)oc2c1 [OT-9]
- MYOG gene expression [1]: slight increase
- fusion index [1]: slight increase
- increase in membrane-associated utrophin protein [2]: 1.6 fold
- half-life at 1 μM [3]: 49 min
